Values joined by “and” are separate entries in the source; they are usually repeats but may differ in a detail not shown here. Identical values can stand only once. Like-named read-outs stand apart in the source and are kept apart here.
Legend:
[1] = test system: indoleamine 2,3-dioxygenase (IDO); design: method as in PMID 23190609; conditions: cited from earlier work
[2] = test system: abdominal aortic aneurisms (elastase perfusion); design: method as in PMID 28186202; conditions: mice with aneurysm induced by elastase perfusion, cited from earlier work
[3] = design: method as in PMID 28946210; conditions: rat plasma, cited from earlier work
[4] = biological target: receptor interacting protein 1 (RIP1); conditions: cited from earlier work; for IC50: RIP1 inhibitor potency
[5] = Nec-1s plasma levels in rats by HPLC-Q-TOF after i.v. bolus; format: in vivo, male Wistar rats; conditions: for concentration at 50 min: male, Wistar, rat, plasma, iv, 0.37 mg/kg
Description: The developed and validated HPLC-Q-TOF method was applied for the determination of real plasma concentrations of Nec-1s in 5 male Wistar rats after i.v. administration of a bolus dose of Nec-1s (0.37 mg/kg). The samples taken from each subject were prepared and analyzed in triplicate. […] The measured data were consistent to each other with plasma concentrations in the range of 319.81–466.52 nM, and mean value of 377.26 nM. The differences in the found concentrations can be explained by different metabolism in the studied animals.
A total of 11 male Wistar rats (250–300 g body weight) were housed under standard conditions with a controlled light/dark cycle (12/12 h) and temperature (22 °C ± 2 °C), and fed a standard diet and tap water ad libitum. The anesthetized animals (natrium pentobarbital 60 mg/kg, i.p.) were randomized in two groups to receive either vehicle (C, n = 6) or Nec-1s (N, n = 5) and blood was collected from the abdominal aorta 50-min after drug application (a bolus dose; 0.37 mg/kg, i.v.; diluted in 20% v/v DMSO) into EDTA-containing syringes (S-Monovette, Starstedt, Germany). To obtain plasma, the blood was centrifuged at 4 °C for 15 min at 4000× g. The aliquots of plasma were stored at −80 °C until further procedure.
An aliquot of plasma was thawed at laboratory temperature. Afterwards, the rat plasma (180 µL) was mixed with the internal standard solution (20 µL, 1.25 µg/mL of prednisone in 50% (v/v) methanol). […] The precipitated sample was vortexed for 5 min (2400 rpm) and then centrifuged for 10 min (15000× g; 4 °C). After the centrifugation, 800 µL of supernatant was transferred into another tube and evaporated to dryness under a gentle stream of nitrogen at ambient temperature. The residuals were reconstituted with 100 µL of mobile phase (25:75 mixture of acetonitrile and water containing 0.1% formic acid) and an aliquot of the solution (5 µL) was used for the HPLC-DAD-Q-TOF analysis.
All of the analyses were carried out on the chromatographic apparatus consisting of LC Agilent Infinity System (Agilent Technologies, Santa Clara, CA, USA) equipped with a gradient pump (1290 Bin Pump VL), an automatic injector (1260 HiPals), and column thermostat (1290 TCC; set at 4 °C). The LC system was hyphenated with a photodiode array detector (Infinity 1290 DAD), and quadrupole time-of-flight (Q-TOF) mass spectrometer (Agilent 6520 Accurate-Mass Q-TOF LC/MS) equipped with the electrospray ionization (ESI) source operated in a positive ionization mode. A computer with a MassHunter software (version MassHunter Workstation B.05.01, Agilent Technologies) was used to control the apparatus as well as acquire and process the data. The Q-TOF mass spectrometer was operated under following parameters: drying gas temperature 360 °C, drying gas flow 12 L/min, nebulizing gas pressure 60 psi, capillary voltage 5500 V, fragmentor voltage 125 V, skimmer voltage 65 V, OctopoleRFPeak 550 V, and collision gas N2. […] In the processing the exact (theoretical) masses of their [M + H]^+ (278.0691 for Nec-1s; 359.1853 for prednisone), and [M + Na]^+ (300.0510 for Nec-1s; 381.1672 for prednisone) adducts were used. For the MS spectra obtained by the analysis of the stock solutions of Nec-1s and prednisone see Figure 4. The theoretical and experimentally found masses of the Nec-1s and prednisone adducts were in a very good mutual agreement so that Q-TOF was suitable for an unambiguous confirmation of the identity of the analyzed compounds in the samples. The EIC were extracted with m/z expansion of ±10 ppm. In case of DAD detector, the peak areas of the analyte and IS were evaluated at the wavelength of 280 nm.
The chromatographic separation of the Nec-1s was achieved by using RP-C18 chromatographic column–Zorbax Extend-C18, 2.1 × 50 mm, 1.8 µm obtained from Agilent Technologies. A gradient elution of mobile phases consisting of 0.1% formic acid in LC-MS water (A) and 0.1% formic acid in acetonitrile (B) was used. […]

[6] = test system: receptor interacting protein 1 (RIP1); assay: RIP1 inhibition (necrostatin potency); format: biochemical; conditions: Nec-1s vs Nec-1
[7] = design: method as in PMID 23190609; conditions: cited from earlier work
[8] = design: method as in PMID 23190609; conditions: cited from earlier work; remark: listed apart in the source
[9] = individual rats N1-N5, 50 min after i.v. bolus dose 0.37 mg/kg, n = 3 analyses

| Compound | effect on IDO [1] | aortic diameter vs control ([2]; p = 0.1) | concentration level at 5 min after i.v. administration ([3]; i.v., 5 min) [ng/mL] | concentration level at 1 h after i.v. administration ([3]; i.v., 1 h) [ng/mL] | concentration level at 8 h after i.v. administration ([3]; i.v., 8 h) [ng/mL] | concentration after 8 h, oral administration ([3]; oral, after 8 h) | peak concentration after oral administration ([3]; oral) [ng/mL] | time of peak concentration after oral administration ([3]; oral) [h] | IC50 [4] [nM] | capability to inhibit RIP1 [4] | aortic expansion ([2]; control 172.80%, p < 0.05) [%] | Plasma Concentration (nM) [5, 9] | Plasma Concentration (ng/mL) [5, 9] | concentration at 50 min ([5]; 50 min after i.v. bolus dose 0.37 mg/kg, 5 male Wistar rats, read-out: plasma concentration, mean value of 5 rats) [nM] | concentration at 50 min ([5]; 50 min after i.v. bolus dose 0.37 mg/kg, 5 male Wistar rats, read-out: plasma concentrations, range over 5 rats) [nM] | concentration at 50 min ([5]; individual rats N1-N5, 50 min after i.v. bolus dose 0.37 mg/kg, n = 3 analyses, read-out: Plasma Concentration) [nM] | concentration at 50 min ([5]; individual rats N1-N5, 50 min after i.v. bolus dose 0.37 mg/kg, n = 3 analyses, read-out: Plasma Concentration (ng/mL)) [ng/mL] | inhibition activity relative to Nec-1 [6] [times] | metabolic stability in comparison to Nec-1 [7] | in vivo and in vitro toxicity compared with Nec-1 [8] |
| --- | --- | --- | --- | --- | --- | --- | --- | --- | --- | --- | --- | --- | --- | --- | --- | --- | --- | --- | --- | --- |
| CN1C(=O)C(Cc2c[nH]c3ccccc23)NC1=S (centres unmarked) [Nec-1, 5-(indol-3-ylmethyl)(2-thio-3-methyl)hydantoin] | concomitant inhibition of indoleamine 2,3-dioxygenase (IDO) | smaller but the difference was not statistically significant | 1733 | 617 | < 100 | undetectable | 648 | 1 | 494 |  |  |  |  |  |  |  |  |  |  |  |
| O=C1NC(=S)NC1Cc1c[nH]c2ccccc12 (centres unmarked) [Nec-1i] | found to be an IDO inhibitor |  |  |  |  |  |  |  |  | lacking the capability to inhibit RIP1 |  |  |  |  |  |  |  |  |  |  |
| CN1C(=O)NC(Cc2c[nH]c3c(Cl)cccc23)C1=O (centres unmarked) [Nec-1s, 5-((7-chloro-1H-indol-3-yl)methyl)-3-methyl-2,4-imidazolidinedione] | does not influence IDO |  |  |  |  |  |  |  | 210 |  | 64.12 | 327.43 nM and 398.08 nM and 319.81 nM and 466.52 nM | 90.93 ng/mL and 110.55 ng/mL and 88.81 ng/mL and 129.56 ng/mL | 377 | 320 to 467 | 374 | 104 | 2 | metabolically more stable | reduced |

— paper PMC6222636, “Determination of Novel Highly Effective Necrostatin Nec-1s in Rat Plasma by High Performance Liquid Chromatography Hyphenated with Quadrupole-Time-of-Flight Mass Spectrometry” (Molecules : A Journal of Synthetic Chemistry and Natural …, 2018)
